Source: patent US20250264461A1, “NANOVESICLE COMPRISING HETERODIMERIC G-PROTEIN COUPLED RECEPTOR, METHOD FOR PREPARING NANOVESICLE, FIELD EFFECT TRANSISTOR-BASED TASTE SENSOR COMPRISING NANOVESICLE, AND METHOD FOR MANUFACTURING TASTE SENSOR” (Seoul National University R&DB Foundation, priority 2013, published 2025)
One block for each molecule: values may come before it. Peptide text beside a SMILES is read from it.

Assays:
[1] = target: T1, sweet taste substance receptor protein (hTAS1R2 and hTAS1R3) (Homo sapiens, UniProt Q7RTX0+Q8TE23); assay: nanovesicle based field effect transistor taste sensor, real-time source-drain current / conductance; assay type: biochemical; details: for signal change: 100 mM added
T1 construct: HA (N); expressed in transfected cells
T1 sequence (Q8TE23 20-839): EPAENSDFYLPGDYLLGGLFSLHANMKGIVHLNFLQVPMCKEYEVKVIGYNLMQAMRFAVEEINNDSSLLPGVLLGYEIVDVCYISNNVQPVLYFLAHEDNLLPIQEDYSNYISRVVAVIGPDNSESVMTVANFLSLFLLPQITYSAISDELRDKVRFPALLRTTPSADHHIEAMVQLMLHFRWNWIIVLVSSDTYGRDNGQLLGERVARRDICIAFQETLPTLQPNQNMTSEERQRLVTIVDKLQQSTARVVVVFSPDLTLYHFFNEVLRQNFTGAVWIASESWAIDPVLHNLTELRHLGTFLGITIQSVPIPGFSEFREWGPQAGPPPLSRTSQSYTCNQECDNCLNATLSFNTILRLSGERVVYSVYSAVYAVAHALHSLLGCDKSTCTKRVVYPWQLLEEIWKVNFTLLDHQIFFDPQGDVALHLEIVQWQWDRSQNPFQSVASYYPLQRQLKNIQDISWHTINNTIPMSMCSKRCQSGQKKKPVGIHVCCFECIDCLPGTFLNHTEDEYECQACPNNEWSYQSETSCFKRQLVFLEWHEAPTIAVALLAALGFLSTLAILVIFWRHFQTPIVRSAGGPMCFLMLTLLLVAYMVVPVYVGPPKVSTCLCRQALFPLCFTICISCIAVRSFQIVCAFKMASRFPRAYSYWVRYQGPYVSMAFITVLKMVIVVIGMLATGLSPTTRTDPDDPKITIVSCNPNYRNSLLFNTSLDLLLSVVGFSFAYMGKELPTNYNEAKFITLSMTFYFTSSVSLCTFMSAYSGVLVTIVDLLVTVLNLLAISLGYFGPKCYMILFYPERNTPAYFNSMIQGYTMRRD
T1 sequence (Q7RTX0 21-852): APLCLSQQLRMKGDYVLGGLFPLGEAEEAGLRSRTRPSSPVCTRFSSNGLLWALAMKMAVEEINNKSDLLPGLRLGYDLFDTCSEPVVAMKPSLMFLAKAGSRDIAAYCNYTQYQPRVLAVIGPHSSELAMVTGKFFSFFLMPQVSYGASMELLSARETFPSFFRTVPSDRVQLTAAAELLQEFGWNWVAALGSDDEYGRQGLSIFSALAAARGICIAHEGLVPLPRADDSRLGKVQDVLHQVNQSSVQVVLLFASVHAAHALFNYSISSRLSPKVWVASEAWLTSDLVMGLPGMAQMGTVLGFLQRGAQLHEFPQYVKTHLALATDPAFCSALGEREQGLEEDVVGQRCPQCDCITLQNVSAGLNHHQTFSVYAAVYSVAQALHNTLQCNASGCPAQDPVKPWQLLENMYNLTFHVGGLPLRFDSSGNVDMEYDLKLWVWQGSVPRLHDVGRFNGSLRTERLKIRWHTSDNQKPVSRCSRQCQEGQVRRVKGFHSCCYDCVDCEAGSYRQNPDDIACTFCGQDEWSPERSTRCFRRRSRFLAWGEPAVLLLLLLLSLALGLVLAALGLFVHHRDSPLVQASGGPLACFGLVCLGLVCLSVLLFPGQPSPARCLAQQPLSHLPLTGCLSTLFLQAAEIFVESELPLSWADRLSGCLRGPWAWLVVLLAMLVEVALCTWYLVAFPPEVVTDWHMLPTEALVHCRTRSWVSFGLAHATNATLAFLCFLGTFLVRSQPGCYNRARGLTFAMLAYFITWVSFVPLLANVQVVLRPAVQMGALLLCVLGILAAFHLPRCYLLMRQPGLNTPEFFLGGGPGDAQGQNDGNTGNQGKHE

[2] = target: T1, sweet taste substance receptor protein (hTAS1R2 and hTAS1R3); assay: as above; assay type: biochemical; details: for fit of sensor signals to the hill equation model: FIG. 4C; for signal generating from the taste sensor (sensitivity ΔG/G0): FIG. 3C
Method: A sweet taste substance (Sigma Aldrich, USA) with a 1 mM concentration was dissolved into PBS (phosphate buffered saline; Gibco, USA) containing 2 mM CaCl2 therein. The resulting solution was sequentially diluted 1/10 times to acquire a diluent. The diluent was exposed to the nanovesicle based field effect transistor manufactured in the embodiment 2. A current between the source electrode and drain electrode was measured in a real time manner to check a reaction magnitude. A sensitivity ΔG/G0 of a sweet taste substance relative to sucrose in the nanovesicle based field effect transistor was measured in a real time manner.

[3] = target: T2, nanovesicle including TAS1R2 and TAS1R3 (Homo sapiens, UniProt Q7RTX0+Q8TE23); assay: Ca2+ dependent fluorescence signal in nanovesicle separated from transformed HEK-293 cell line; assay type: biochemical; details: 10 mM sucrose added, FIG. 2F
T2 construct: HA (N); expressed in transfected cells
T2 sequence (Q8TE23 20-839): T1 sequence (Q8TE23 20-839)
T2 sequence (Q7RTX0 21-852): T1 sequence (Q7RTX0 21-852)
Method: (§1) A signal transfer via a sweet taste substance of each of the nanovesicle and HEK-293 cell was checked wherein the HEK-293 cell has the expressed heterodimeric receptor including the hTAS1R2 and hTAS1R3 manufactured in the embodiment 1, and the nanovesicle is separated from the HEK-293 cell.
(§2) For this, the transformed HEK-293 cell line was incubated for three or more days. Then, 5 μm Fura 2-AM (acetoxymethyl)(calcium indicator, Invitrogen) was loaded on the cells in an imaging buffer solution (NaCl 140 mM, KCl 5 mM, MgCl2 1 mM, CaCl2 2 mM, HEPES 10 mM, Glucose 10 mM, 0.1% Pluronic F-127, pH 7.4). A non-specific esterase residing in the cell performs hydrolysis for an AM ester group to be changed into a form sensitive to Ca^2+ ions. […]
(§3) After three times cleaning using respective solutions, a ligand and ATP (100 uM) for a Ca^2+ dependent fluorescence signal was injected thereto, and, dual stimulations (340 nm, and 380 nm) were applied thereto. Thereafter, a fluorescence signal due to Ca^2+ at 510 nm was measured using a spectrofluorophotometer. The fluorescence signal was obtained at 2 seconds intervals. A final result was shown as a ratio between fluorescence strengths resulting from the dual stimulations.

[4] = target: T3, heterodimeric receptor including the hTAS1R2 and hTAS1R3 (Homo sapiens, UniProt Q7RTX0+Q8TE23); assay: Ca2+ dependent fluorescence signal in transformed HEK-293 cell line; assay type: cell-based; details: 10 mM sucrose added, Fura 2-AM, ratio of 340/380 nm stimulation, emission 510 nm, FIG. 2C
T3 construct: HA (N); expressed in transfected cells
T3 sequence (Q8TE23 20-839): T1 sequence (Q8TE23 20-839)
T3 sequence (Q7RTX0 21-852): T1 sequence (Q7RTX0 21-852)
Method: as §1, §2, §3

SMILES: O=C[C@H](O)[C@@H](O)[C@H](O)[C@H](O)C(=O)O [D-glucuronic acid]
- signal change ([1]; FIG. 4B): no signal change

SMILES: COC(=O)[C@H](Cc1ccccc1)NC(=O)[C@@H](N)CC(=O)O [aspartame] (H-Asp-Phe-OMe)
- fit of sensor signals to the hill equation model [2]: comply with the hill equation model
- sensitivity as a working substance relative to sucrose ([2]; compared with sucrose): more sensitive

SMILES: OC[C@H]1O[C@@H](O[C@H]2[C@H](O)[C@@H](O)[C@H](O)O[C@@H]2CO)[C@H](O)[C@@H](O)[C@@H]1O [cellobios]
- signal change ([1]; FIG. 4B): no signal change

The next lines start with the values.

- fit of sensor signals to the hill equation model [2]: comply with the hill equation model
SMILES: O=C(CO)[C@@H](O)[C@H](O)[C@H](O)CO [fructose]

- reaction magnitude decrease ([1]; 500 uM added, FIG. 4B): about 5%
- detection in real samples ([1]; 1 mM concentration, contained in coffee and Darjeeling tea, FIG. 4D): may be detected
- signal generating from the taste sensor (sensitivity ΔG/G0) ([2]; 100 uM concentration): decreases
- signal generating from the taste sensor (sensitivity ΔG/G0) ([2]; 500 uM concentration): rapidly decreases
- fit of sensor signals to the hill equation model [2]: comply with the hill equation model
- fluorescence emission strength [3]: relatively increases
- fluorescence emission strength [4]: relatively increases
SMILES: OC[C@H]1O[C@@](CO)(O[C@H]2O[C@H](CO)[C@@H](O)[C@H](O)[C@H]2O)[C@@H](O)[C@@H]1O [sucrose]
